According to patent publication US6737383B1, “Herbicidal oxadiazolidines” (priority 1999, dated 2004):

How the values were obtained:
[1] = test system: bedstraw; experiment: Test B pre/postemergence bedstraw; assay type: in vivo, Galium aparine
Outline: (§1)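 Test chemicals in a non-phytotoxic solvent mixture with surfactant were sprayed preemergence onto planted seeds and postemergence onto plants 2 to 18 cm tall (1- to 4-leaf stage). After twelve to sixteen days in a greenhouse, injury was visually rated against untreated controls from 0 (no effect) to 10 (complete control).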

[2] = test system: blackgrass; experiment: Test B pre/postemergence blackgrass; assay type: in vivo, Alopecurus myosuroides
Outline: as §1

[3] = test system: surinam grass; experiment: Test B pre/postemergence surinam grass; assay type: in vivo, Brachiaria decumbens
Outline: as §1

[4] = test system: cocklebur; experiment: Test B pre/postemergence cocklebur; assay type: in vivo, Xanthium strumarium
Outline: as §1

[5] = test system: corn; experiment: Test B pre/postemergence corn; assay type: in vivo, Zea mays
Outline: as §1

[6] = test system: crabgrass; experiment: Test B pre/postemergence crabgrass; assay type: in vivo, Digitaria sanguinalis
Outline: as §1

[7] = test system: giant foxtail; experiment: Test B pre/postemergence giant foxtail; assay type: in vivo, Setaria faberii
Outline: as §1

[8] = test system: pigweed; experiment: Test B pre/postemergence pigweed; assay type: in vivo, Amaranthus retroflexus
Outline: as §1

[9] = test system: soybean; experiment: Test B pre/postemergence soybean; assay type: in vivo, Glycine max
Outline: as §1

[10] = test system: sugar beet; experiment: Test B pre/postemergence sugar beet; assay type: in vivo, Beta vulgaris
Outline: as §1

[11] = test system: velvetleaf; experiment: Test B pre/postemergence velvetleaf; assay type: in vivo, Abutilon theophrasti
Outline: as §1

[12] = test system: wheat; experiment: Test B pre/postemergence wheat; assay type: in vivo, Triticum aestivum
Outline: as §1

[13] = test system: wild oat; experiment: Test B pre/postemergence wild oat; assay type: in vivo, Avena fatua
Outline: as §1

[14] = test system: purple nutsedge; experiment: Test B pre/postemergence purple nutsedge; assay type: in vivo, Cyperus rotundus
Outline: as §1

[15] = test system: rice; experiment: Test B flood test rice; assay type: in vivo, Oryza sativa
Outline: (§2)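 Each value is a visual injury score relative to controls, with 10 meaning complete control and 0 no effect. Evaluation took place twelve to sixteen days after the 2-leaf-stage plants were treated and kept in the greenhouse.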

[16] = test system: duck salad; experiment: Test B flood test duck salad; assay type: in vivo, Heteranthera limosa
Outline: as §2

[17] = Preemergence, Rate 62 g/ha, scale of 0 to 10 where 0 is no effect and 10 is complete control
[18] = Preemergence, Rate 250 g/ha, scale of 0 to 10 where 0 is no effect and 10 is complete control
[19] = Preemergence, Rate 500 g/ha, scale of 0 to 10 where 0 is no effect and 10 is complete control
[20] = Rate 62 g/ha, Postemergence, scale of 0 to 10 where 0 is no effect and 10 is complete control
[21] = Rate 125 g/ha, Postemergence, scale of 0 to 10 where 0 is no effect and 10 is complete control
[22] = Rate 125 g/ha, Preemergence, scale of 0 to 10 where 0 is no effect and 10 is complete control
[23] = Rate 250 g/ha, Postemergence, scale of 0 to 10 where 0 is no effect and 10 is complete control
[24] = Rate 500 g/ha, Postemergence, scale 0 to 10, 0 no effect, 10 complete control
[25] = Pre-emergence, Rate 1000 g/ha, scale 0 to 10 (0 no effect, 10 complete control)
[26] = Rate 62 g/ha, headed Pre-emergence (flood test species), scale 0 to 10 (0 no effect, 10 complete control)
[27] = Rate 125 g/ha, Pre-emergence, flood test species, scale 0 to 10 where 0 is no effect and 10 is complete control
[28] = Rate 250 g/ha, Pre-emergence, flood-test species, scale 0 to 10, 0 is no effect, 10 is complete control
[29] = Rate 500 g/ha, Pre-emergence, flood test species, scale 0 to 10 (0 no effect, 10 complete control)
[30] = Rate 2000 g/ha, Pre-emergence (as headed), scale 0 to 10

CCN(C(=O)n1oc(=O)n(N(C)C)c1=O)C1CCCCC1 [Compound 274]
Bedstraw plant response rating [1, 17]: 0
Bedstraw plant response rating [1, 18]: 0
Plant response rating, Bedstraw [1, 19]: 0
Bedstraw plant response rating [1, 20]: 0
Bedstraw plant response rating [1, 21]: 0
Bedstraw plant response rating [1, 22]: 0
Plant response rating, Bedstraw [1, 23]: 0
Bedstraw plant response rating [1, 24]: 0
Blackgrass plant response rating [2, 17]: 0
Blackgrass plant response rating [2, 18]: 0
Plant response rating, Blackgrass [2, 19]: 0
Blackgrass plant response rating [2, 20]: 0
Blackgrass plant response rating [2, 21]: 0
Blackgrass plant response rating [2, 22]: 0
Plant response rating, Blackgrass [2, 23]: 0
Blackgrass plant response rating [2, 24]: 0
B. signalgrass plant response rating [3, 17]: 0
B. signalgrass plant response rating [3, 18]: 0
Plant response rating, B. signalgrass [3, 19]: 0
B. signalgrass plant response rating [3, 20]: 0
B. signalgrass plant response rating [3, 21]: 0
B. signalgrass plant response rating [3, 22]: 0
Plant response rating, B. signalgrass [3, 23]: 0
B. signalgrass plant response rating [3, 24]: 0
Cocklebur plant response rating [4, 17]: 0
Cocklebur plant response rating [4, 18]: 0
Plant response rating, Cocklebur [4, 19]: 0
Cocklebur plant response rating [4, 20]: 0
Cocklebur plant response rating [4, 21]: 0
Cocklebur plant response rating [4, 22]: 0
Plant response rating, Cocklebur [4, 23]: 0
Cocklebur plant response rating [4, 24]: 0
Corn plant response rating [5, 17]: 0
Corn plant response rating [5, 18]: 0
Plant response rating, Corn [5, 19]: 0
Corn plant response rating [5, 20]: 0
Corn plant response rating [5, 21]: 0
Corn plant response rating [5, 22]: 0
Plant response rating, Corn [5, 23]: 0
Corn plant response rating [5, 24]: 0
Crabgrass plant response rating [6, 17]: 0
Crabgrass plant response rating [6, 18]: 1
Plant response rating, Crabgrass [6, 19]: 5
Crabgrass plant response rating [6, 21]: 0
Crabgrass plant response rating [6, 22]: 0
Plant response rating, Crabgrass [6, 23]: 0
Crabgrass plant response rating [6, 24]: 0
Giant foxtail plant response rating [7, 17]: 0
Giant foxtail plant response rating [7, 18]: 6
Plant response rating, Giant foxtail [7, 19]: 9
Giant foxtail plant response rating [7, 21]: 0
Giant foxtail plant response rating [7, 22]: 3
Plant response rating, Giant foxtail [7, 23]: 0
Giant foxtail plant response rating [7, 24]: 0
Redroot pigweed plant response rating [8, 17]: 0
Redroot pigweed plant response rating [8, 18]: 0
Plant response rating, Redroot pigweed [8, 19]: 0
Redroot pigweed plant response rating [8, 21]: 0
Redroot pigweed plant response rating [8, 22]: 0
Plant response rating, Redroot pigweed [8, 23]: 1
Redroot pigweed plant response rating [8, 24]: 1
Soybean plant response rating [9, 17]: 0
Soybean plant response rating [9, 18]: 0
Plant response rating, Soybean [9, 19]: 0
Soybean plant response rating [9, 21]: 3
Soybean plant response rating [9, 22]: 0
Plant response rating, Soybean [9, 23]: 5
Soybean plant response rating [9, 24]: 5
Sugarbeets plant response rating [10, 17]: 0
Sugarbeets plant response rating [10, 18]: 0
Plant response rating, Sugarbeets [10, 19]: 0
Sugarbeets plant response rating [10, 21]: 0
Sugarbeets plant response rating [10, 22]: 0
Plant response rating, Sugarbeets [10, 23]: 0
Sugarbeets plant response rating [10, 24]: 1
Velvetleaf plant response rating [11, 17]: 0
Velvetleaf plant response rating [11, 18]: 0
Plant response rating, Velvetleaf [11, 19]: 0
Velvetleaf plant response rating [11, 21]: 0
Velvetleaf plant response rating [11, 22]: 0
Plant response rating, Velvetleaf [11, 23]: 0
Velvetleaf plant response rating [11, 24]: 0
Wheat plant response rating [12, 17]: 0
Wheat plant response rating [12, 18]: 0
Plant response rating, Wheat [12, 19]: 0
Wheat plant response rating [12, 21]: 0
Wheat plant response rating [12, 22]: 0
Plant response rating, Wheat [12, 23]: 0
Wheat plant response rating [12, 24]: 0
Wild oats plant response rating [13, 17]: 0
Wild oats plant response rating [13, 18]: 0
Plant response rating, Wild oats [13, 19]: 0
Wild oats plant response rating [13, 21]: 0
Plant response rating, Wild oats [13, 23]: 0
Wild oats plant response rating [13, 24]: 0
Nutsedge plant response rating [14, 17]: 0
Nutsedge plant response rating [14, 18]: 0
Plant response rating, Nutsedge [14, 19]: 0
Nutsedge plant response rating [14, 21]: 0
Nutsedge plant response rating [14, 22]: 0
Plant response rating, Nutsedge [14, 23]: 0
Nutsedge plant response rating [14, 24]: 0
Rice plant response rating [15, 25]: 0
Rice plant response rating [15, 26]: 0
Rice plant response rating [15, 27]: 0
Rice plant response rating [15, 28]: 0
Rice plant response rating [15, 29]: 0
Rice plant response rating [15, 30]: 0
Ducksalad plant response rating [16, 25]: 0
Ducksalad plant response rating [16, 26]: 0
Ducksalad plant response rating [16, 27]: 0
Ducksalad plant response rating [16, 28]: 0
Ducksalad plant response rating [16, 29]: 0
Ducksalad plant response rating [16, 30]: 0
